Results from patent US20170226081A1, “GLUCOSE TRANSPORT INHIBITORS” (Bayer Pharma Aktiengesellschaft, priority 2014, published 2017).

These compounds were tested against T1, GLUT1 (Homo sapiens, UniProt P11166) (assay: Indirect measurement of GLUT activity by quantification of intracellular ATP levels (glucose induced ATP increase)). Conditions: DLD1 cells; 1 mM glucose, 1 uM Rotenone, 15 min; standardized to cytochalasin B IC50 values; read-out: IC50 regarding glucose induced ATP increase (GLUT1 inhibition).
T1 construct: endogenous in cells
T1 sequence (P11166 1-492): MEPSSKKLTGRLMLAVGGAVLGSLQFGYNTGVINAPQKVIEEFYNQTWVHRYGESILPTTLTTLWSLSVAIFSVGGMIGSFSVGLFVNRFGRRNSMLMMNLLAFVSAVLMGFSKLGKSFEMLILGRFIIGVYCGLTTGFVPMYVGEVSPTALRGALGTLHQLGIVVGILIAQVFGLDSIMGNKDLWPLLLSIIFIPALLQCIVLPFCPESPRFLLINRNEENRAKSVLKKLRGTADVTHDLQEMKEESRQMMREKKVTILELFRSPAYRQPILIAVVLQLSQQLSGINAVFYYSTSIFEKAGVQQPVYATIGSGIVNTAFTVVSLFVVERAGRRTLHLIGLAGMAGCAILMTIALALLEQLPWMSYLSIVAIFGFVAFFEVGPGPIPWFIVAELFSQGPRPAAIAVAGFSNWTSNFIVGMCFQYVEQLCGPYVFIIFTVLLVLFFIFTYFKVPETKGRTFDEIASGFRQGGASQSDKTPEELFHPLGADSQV
Assay type: cell-based
From the text: It is well known that a combination of small-molecule inhibitors of mitochondrial electron transport chain and glucose catabolism synergistically suppress ATP production and impair cellular viability (Ulanovskaya et al., 2008, 2011; Liu, et al. 2001). We therefore used DLD1 or CHO-K1 cells in combination with an oxidative phosphorylation inhibitor to identify GLUT inhibitors. Cell lines were maintained in DMEM medium supplemented with 10% FCS and 1% Penicillin-Streptomycin solution and 2% Glutamax. The cells were treated with trypsin and seeded into 384 plates at a density of 4000 cells/well. The cells were then cultured overnight in glucose free media containing 1% FCS to reduce intracellular ATP levels. After 24 h the cells were incubated at 37° C. containing the appropriate glucose or in case of GLUT2 fructose concentration (1 mM and 30 mM respectively) with or without compounds and 1 uM Rotenone for 15 min. The CellTiter-Glo® Luminescent Cell Viability Assay from Promega was then used to measure ATP levels. Compounds able to reduce the ATP Levels within 15 min of glucose application were considered to be glucose uptake inhibitors.

SMILES | IC50 [nM]
COc1ccc(Cn2cc(NC(=O)c3cc(C(F)(F)F)nc4ccc(Br)cc34)c(C)n2)cc1 [Example 12, 6-bromo-N-[1-(4-methoxybenzyl)-3-methyl-1H-pyrazol-4-yl]-2-(trifluoromethyl)quinoline-4-carboxamide] | 29
Cc1cc(Cn2cc(NC(=O)c3cc(C(N)=O)nc4ccccc34)c(C)n2)no1 [Example 74, N^4-{3-methyl-1-[(5-methyl-1,2-oxazol-3-yl)methyl]-1H-pyrazol-4-yl}quinoline-2,4-dicarboxamide] | 153
CCS(=O)(=O)N1CCC(Cn2cc(NC(=O)c3cc(C(F)(F)F)nc4ccc(Br)cc34)c(C)n2)CC1 [Example 67, 6-bromo-N-(1-{[1-(ethylsulfonyl)piperidin-4-yl]methyl}-3-methyl-1H-pyrazol-4-yl)-2-(trifluoromethyl)quinoline-4-carboxamide] | 665
CCS(=O)(=O)N1CCC(Cn2cc(NC(=O)c3cc(C(N)=O)nc4ccccc34)c(C)n2)CC1 [Example 72, N^4-(1-{[1-(ethylsulfonyl)piperidin-4-yl]methyl}-3-methyl-1H-pyrazol-4-yl)quinoline-2,4-dicarboxamide] | 247
Cc1nn(Cc2ccc(F)cc2)cc1NC(=O)c1cc(C(F)(F)F)nc2cc(F)c(F)cc12 [Example 2, 6,7-difluoro-N-[1-(4-fluorobenzyl)-3-methyl-1H-pyrazol-4-yl]-2-(trifluoromethyl)quinoline-4-carboxamide] | 505
Cc1ccc(Cn2cc(NC(=O)c3cc(C(N)=O)nc4ccccc34)c(C)n2)cc1 [Example 54, N^4-[3-methyl-1-(4-methylbenzyl)-1H-pyrazol-4-yl]quinoline-2,4-dicarboxamide] | 13
COCCNC(=O)c1nn(Cc2ccc(F)cc2)cc1NC(=O)c1cc(C(F)(F)F)nc2ccc(Br)cc12 [Example 23, 6-bromo-N-{1-(4-fluorobenzyl)-3-[(2-methoxyethyl)carbamoyl]-1H-pyrazol-4-yl}-2-(trifluoromethyl)quinoline-4-carboxamide] | 20100
Cc1nc(Cn2cc(NC(=O)c3cc(C(N)=O)nc4ccccc34)c(C)n2)cs1 [Example 68, N^4-{3-methyl-1-[(2-methyl-1,3-thiazol-4-yl)methyl]-1H-pyrazol-4-yl}quinoline-2,4-dicarboxamide] | 260

Continued by falling IC50, values first:

IC50 [nM] | SMILES
7040 | N#Cc1ccc(Cn2cc(NC(=O)c3cc(C(F)(F)F)nc4ccc(Br)cc34)c(C(=O)NCCO)n2)cc1 [Example 26, 6-bromo-N-{1-(4-cyanobenzyl)-3-[(2-hydroxyethyl)carbamoyl]-1H-pyrazol-4-yl}-2-(trifluoromethyl)quinoline-4-carboxamide]
179 | COc1cc(C(=O)Nc2cn(Cc3ccc(C#N)cc3)nc2C(F)(F)F)c2ccccc2n1 [Example 37, N-[1-(4-cyanobenzyl)-3-(trifluoromethyl)-1H-pyrazol-4-yl]-2-methoxyquinoline-4-carboxamide]
84 | N#Cc1ccc(Cn2cc(NC(=O)c3cc(C(F)(F)F)nc4ccc(Br)cc34)c(C(F)(F)F)n2)cc1 [Example 36, 6-bromo-N-[1-(4-cyanobenzyl)-3-(trifluoromethyl)-1H-pyrazol-4-yl]-2-(trifluoromethyl)quinoline-4-carboxamide]
83 | Cc1nn(Cc2ccc(F)c(F)c2)cc1NC(=O)c1cc(C(N)=O)nc2ccccc12 [Example 55, N^4-[1-(3,4-difluorobenzyl)-3-methyl-1H-pyrazol-4-yl]quinoline-2,4-dicarboxamide]
79 | COc1cc(C(=O)Nc2cn(Cc3ccc(C#N)cc3)nc2C)c2ccccc2n1 [Example 10, N-[1-(4-cyanobenzyl)-3-methyl-1H-pyrazol-4-yl]-2-methoxyquinoline-4-carboxamide]
20 | N#Cc1ccc(Cn2cc(NC(=O)c3cc(C(N)=O)nc4ccccc34)c(C(F)(F)F)n2)cc1 [Example 39, N^4-[1-(4-cyanobenzyl)-3-(trifluoromethyl)-1H-pyrazol-4-yl]quinoline-2,4-dicarboxamide]
